Assay results reported in PMC12730730, “CAPE Derivatives as Potent Agents for Induction of Osteogenic Differentiation in DPSCs and Biomaterial Development” (Biomedicines, 2025).
Entries after “also recorded” stand apart in the source; their conditions may differ.

What was measured:
DPSCs [1] = test: Crystal violet cell viability assay of DPSCs in osteogenic medium; type: cell-based; settings: 0.5, 1 and 5 µM; 3, 7, 14, 21 and 28 days; vs Control (diff)
Procedure: Dental pulp stem cells (DPSCs) were cultured in α-MEM medium (Merck, Darmstadt, Germany), supplemented with 10% fetal bovine serum (FBS) and 1% penicillin/streptomycin (Euroclone S.p.A., Milan, Italy). The cells were purchased from Lonza (Lonza Group Ltd., Basel, Switzerland) and kept at 37 °C and 5% CO2.
Cell viability (relative numbers compared to control cells) was determined by a crystal violet assay. After reaching the growth exponential phase, DPSCs were seeded into 48-well culture plates at a density of 8 × 10^3 cells per well. After 24 h, different concentrations (ranging from 0 to 5 µM) of each compound (1a, 1d, 2a and 2d) were added to DPSCs in an osteogenic medium, whereas cells cultured in the same osteogenic medium without CAPE derivatives served as control. After 3, 7, 14, 21, and 28 days, the medium was removed from each well, a wash with PBS was performed and cell were then fixed with glutaraldehyde (1%), and stained at room temperature with a crystal violet solution (0.02%) (both from Thermo Fisher Scientific, Waltham, MA, USA). After 30 min, the cells were rinsed with tap water, and bound crystal violet was dissolved in 70% ethanol. Then, absorbance was read at 600 nm with a spectrophotometer (Multiskan GO, Thermo Fisher Scientific, Waltham, MA, USA). The optical density readings were used to indicate cell survival relative to untreated cultures.

DPSCs [2] = test: Alizarin Red S staining, extracellular mineralized matrix deposition; type: cell-based; settings: for Extracellular mineralized matrix deposition compared to non-treated cells (Alizarin Red): 28 days in differentiation medium, 0.5, 1 and 5 µM; for Concentrations at which matrix deposition / mineralization is enhanced: 28 days, tested 0.5, 1 and 5 µM
Procedure: (§1) DPSCs were seeded at a density of 3.5 × 10^4 in 12-well plates in the presence of differentiation medium, which consists of complete α-MEM supplemented with 10 nM dexamethasone, 10 mM β-glycerophosphate and 0.2 mM ascorbic acid phosphate (all purchased from Sigma-Aldrich, St. Louis, MO, USA). At the established experimental times (3, 7, 14, 21 and 28 days), cells and/or supernatants were collected for further analyses.
Alizarin red staining was performed after 28 days, by washing twice with PBS with Ca^2+/Mg^2+ each well, and fixing the cell monolayer of DPSCs in paraformaldehyde 4% for 15 min at room temperature. After washing twice with deionized water, 40 mM Alizarin Red S solution (Sigma-Aldrich) was added to each well and left at room temperature for 20 min on a shaker, followed by several rinses with deionized water in order to eliminate dye excess. For the spectrophotometric evaluation of calcium level deposits, 800 µL/well of 10% acetic acid was added to each well and then incubated for 30 min in agitation. Wells were then scraped and the sample containing calcium deposits was collected and vortexed. After the addition of hot mineral oil (Sigma-Aldrich), the samples were incubated on ice for 5 min and then centrifuged at 20,000× g for 15 min. After the removal of the supernatant, 10% ammonium hydroxide was added, and the optical density of 150 µL aliquots of this solution was measured at 405 nm through a microplate reader (Multiskan GO, Thermo Fisher Scientific).

[3] = test system: Alkaline phosphatase (ALP) activity in DPSCs; test: Alkaline phosphatase (ALP) activity in supernatants of differentiating DPSCs; type: cell-based; settings: 0.5 µM; 3, 7, 14, 21 and 28 days; vs control (diff)
Procedure: as §1
A colorimetric Alkaline Phosphate Assay Kit (Abcam, Cambridge, UK) was used following manufacturer’s instructions. Briefly, 50 µL of 5 mM p-nitrophenyl phosphate (pNPP) was added to 80 µL of each supernatant and then incubated for 1 h at room temperature in the dark. After the addition of 20 µL of stopping solution, the absorbance was read at 405 nm wavelength through a microplate reader (Multiskan GO, Thermo Fisher Scientific). The ALP activity (mU/mL/min) was calculated in accordance with the manufacturer’s protocol.

BMP2 = test: Real-time RT-PCR, BMP2 gene expression in DPSCs; type: cell-based; settings: 0.5 µM, vs Control (diff)
Procedure: (§2) After 7, 14, and 21 days of treatment, DPSCs were collected and RNA was extracted by PureLink® RNA Mini Kit (Life Technologies, Carlsbad, CA, USA). An amount of 300 µL of lysis buffer supplied with 1% of 2-mercaptoethanol and then 300 µL of 70% v/v ethanol were added to each cell pellet, and samples were transferred into the Spin Cartridge for RNA extraction and purification. After washing with Wash Buffer supplied by the kit, samples were incubated for 15 min with 80 µL of DNase mixture (On-column PureLink® DNase Treatment, Thermo Fisher Scientific) to remove contaminating DNA. RNA extracted from each sample was eluted in 30 µL of Nuclease-Free Water. RNA concentration (ng/µL) was determined through Qubit® RNA BR Assay Kits (Thermo Fisher Scientifc).
(§3) A total of 1 µg of RNA was reverse-transcribed by high-capacity cDNA Reverse Transcription Kit (Life Technologies). Samples were incubated in a thermal cycler at 25 °C for 10 min, 37 °C for 2 h, and 85 °C for 5 min.
(§4) For all the examined mRNAs, gene expression was determined by quantitative PCR using PowerUpTM SYBRTM Green Master Mix (2×) (Thermo Fisher Scientific). Each amplification reaction was performed in a MicroAmp® Optical 96-well Reaction Plate (Life Technologies, Carlsbad, CA, USA) in a reaction volume of 20 µL made up of 10 µL of SYBR Green, 1 µM of each primer (stock solution 100 µM), 10 ng of cDNA and Nuclease-Free Water.
(§5) The run consisted of 50 °C for 2 min, 95 °C for 2 min, 40 cycles of amplification at 95 °C for 15 s and 60 °C for 1 min in QuantStudio 3 (Thermo Fisher Scientific). QuantStudio™ Design & Analysis Software v1.5.1 (Thermo Fisher Scientific) was used to elaborate gene expression data. The authenticity of the PCR products was verified by melt curve analysis. Each gene expression value was normalized to the expression level of 18S. The fold changes of the investigated genes were expressed in relation to the level of 18S at different time points. The relative abundance of mRNA (relative quantification) was quantified using the comparative ^2−∆∆Ct method.

[4] = Kinetic of chemical hydrolysis in 0.02 M phosphate buffer, HPLC; type: physicochemical; settings: for half-life: phosphate buffer
Procedure: For compounds 1a and 1d, the chromatographic analyses were performed using a 1260 Infinity II HPLC (Agilent, Santa Clara, CA, USA) consisting of a 1260 Infinity II Quaternary Pump (model G7111A), 1260 Infinity II auto-sampler (model G7129A), a 1260 Infinity II Multicolumn Thermostat (model G7116A), and a 1260 Infinity II Diode Array Detector (model G7115A) equipped with Poroshell 120 EC-C18 (150 × 4.6 mm i.d., particle size 4 µm, Agilent), operating at 20 °C.
Samples were run using a mixture of water and acetonitrile, enriched with trifluoroacetic acid (0.1% v/v) as mobile phase, in a gradient elution mode starting from 90% to 10% of water over 15 min (Table 2) at a flow rate of 0.8 mL/min. Stock solutions (10 mg/mL) were prepared by dissolving the exact amount of each compound in DMSO and acetonitrile (1:1), and then diluted with acetonitrile to reach 250 µg/mL concentration and analyzed by HPLC, setting the UV-detector at 254 nm.
CAPE, 1a and 1d stock solutions (10 mg/mL) were diluted in prewarmed (37 ± 0.5 °C) PBS solution to reach 10^−4 M concentration (50 mL); these conditions were used to initiate the reaction. At established time points, samples of 250 µL were withdrawn, filtered, and analyzed by HPLC. The pseudo-first-order rate constant (kobs) for the compound hydrolysis was calculated from the slops of the linear plots of ln (% residual compound) against time. The samples were analyzed in triplicate.

[5] = test system: SAOS-2 osteoblastic cell lines; settings: cited from earlier work
calvarial-derived cells = test system: calvarial-derived cells; set-up: method as in Jun et al. 54; settings: long-term cultures of calvarial-derived cells; ref Jun et al. 54; cited from earlier work
osteoblastic cells = test system: osteoblastic cells; set-up: method as in PMID 17979115; settings: cited from earlier work
Osterix (SP7) = test: Real-time RT-PCR, Osterix (SP7) gene expression in DPSCs; type: cell-based; settings: 0.5 µM, vs control sample
Procedure: as §2, §3, §4, §5

Collagen type I = test: ELISA of collagen type I release in DPSC supernatants; type: cell-based, human; settings: 0.5 µM; 7, 14 and 21 days; normalized on crystal violet values
Procedure: as §1
The release of collagen type I in cell supernatants was measured by a Human Collagen Type 1 ELISA kit (Cosmo Bio Co., Ltd., Tokyo, Japan; cat. no. ACE-EC1-E105-EX). The absorbance was measured at 450 nm spectrophotometrically (Multiskan GO, Thermo Fisher Scientific). The concentration of collagen type I (µg/mL) was calculated using a standard curve generated with specific standards provided by the manufacturers and normalized with the crystal violet values.

[6] = Thermal stability of the solid compounds, 1H-NMR before and after heating; type: physicochemical; settings: 20 min at 100 °C, water bath, solid compound
Procedure: To ensure the suitability of compounds 1a and 1d for adsorption onto biomaterials, their thermal stability was confirmed. Initially, ^1H-NMR spectra were acquired for the compounds. Subsequently, they were subjected to heating for 20 min at 100 °C by immersing glass tubes containing the solid compounds in a water bath. Following the heating process, their ^1H-NMR spectra were reacquired and compared with the initial spectra to assess any alterations.

[7] = set-up: method as in PMID 39054610; settings: 30 min at 50 °C; cited from earlier work

Row | SMILES | Cell viability / toxicity towards DPSCs (DPSCs [1]) | Extracellular mineralized matrix deposition compared to non-treated cells (Alizarin Red) (DPSCs [2]) | Concentrations at which matrix deposition / mineralization is enhanced (DPSCs [2]) | ALP activity compared to non-treated cells [3] | BMP2 relative gene expression (BMP2; 21 days) | Kobs ([4]; pH 4.5, 37 °C) | t1/2 ([4]; pH 4.5, 37 °C) | Kobs ([4]; pH 7.4) | half-life ([4]; pH 4.5, pH 4.5, 37 °C) [h] | half-life ([4]; pH 7.4, pH 7.4) [h] | Osx (SP7) relative gene expression (Osterix (SP7); 21 days) [fold] | Collagen type I release with respect to the control sample (Collagen type I) | Thermal stability (identical 1H NMR spectra before and after heat) [6] | Thermal stability (consistent 1H NMR spectra before and after heat) [7] | further results
1 | O=C(/C=C/c1ccc(O)c(O)c1)Nc1cccc2cccnc12 [compound 2d] | no toxicity | more effective in enhancing matrix deposition | only enhance mineralization at the lowest concentration | significantly higher than non-treated cells at all time points | higher BMP2 expression only after 21 days | – | – | – | – | – | – | – | – | – | –
2 | O=C(/C=C/c1ccc(O)c(O)c1)OCCc1ccccc1 [CAPE, caffeic acid phenethyl ester] | – | – | – | – | – | 0.006 (±0.0009) h^−1 | 117.5 (±2.10) h | 0.018 (±0.004) h^−1 | 117 | 38.5 | – | – | – | – | Cytotoxicity at similar concentrations (0.5-5 µM range) ([5]; SAOS-2 osteoblastic cell lines): does not exhibit cytotoxicity; Concentrations that reduce cell viability [5]: above 10 µM; Concentrations at which toxicity is reported (calvarial-derived cells): above 17.6 µM; ECM mineralization (osteoblastic cells; CAPE at 10 μM): reduction in ECM mineralization; ECM mineralization compared to the control group (osteoblastic cells; CAPE at concentrations up to 100 nM): greater mineralization
3 | O=C(/C=C/c1ccc(O)c(O)c1)Oc1cccc2cccnc12 [compound 1d] | no toxicity | more effective in enhancing matrix deposition | only enhance mineralization at the lowest concentration | significantly higher than non-treated cells at all time points | – | – | no degradation; also recorded: stable | 0.033 (±0.002) h^−1 | – | 21.2 | 2.19 | higher quantity of Collagen type I | stable | stable | BMP2 relative gene expression (BMP2; 7 days): significantly increased BMP2 expression
4 | O=C(/C=C/c1ccccc1)Oc1cccc2cccnc12 [compound 1a] | no toxicity | more effective in enhancing matrix deposition | across all tested concentrations | significantly higher than non-treated cells at all time points | 2.2 fold | 0.009 (±0.0008) h^−1 | – | – | 80.6 | – | 2.26 | higher quantity of Collagen type I | stable | stable | BMP2 relative gene expression (BMP2; 14 days): 1.2 fold; Osx (SP7) relative gene expression (Osterix (SP7); 14 days): 4.8 fold; t1/2 ([4]; pH 7.4): no degradation; also recorded: stable
5 | O=C(/C=C/c1ccccc1)Nc1cccc2cccnc12 [compound 2a] | no toxicity | no significant changes | – | – | – | – | – | – | – | – | – | – | – | – | –
